According to PMC11421147 (Journal of Enzyme Inhibition and Medicinal Chemistry, 2024):

What was measured:
[1] = tested on: human blood paraoxonase-1 (PON1); details: cited from earlier work
human sPLA2 hG-IIA = molecular target: T1, human sPLA2 hG-IIA (Homo sapiens, UniProt P14555); assay: Inhibition of sPLA2 activity; type: biochemical; details: IC50 ± standard deviation; for IC50: IC50 sPLA2(IIA)
T1 sequence (P14555 21-144): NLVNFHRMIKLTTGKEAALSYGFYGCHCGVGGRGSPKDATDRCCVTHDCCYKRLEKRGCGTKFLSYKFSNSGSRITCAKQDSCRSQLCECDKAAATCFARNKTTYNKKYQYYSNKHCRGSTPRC

α-glucosidase = α-glucosidase (Saccharomyces cerevisiae, UniProt P53341); assay: α-Glucosidase inhibitory activity; type: biochemical
α-glucosidase, sequence (P53341 whole entry): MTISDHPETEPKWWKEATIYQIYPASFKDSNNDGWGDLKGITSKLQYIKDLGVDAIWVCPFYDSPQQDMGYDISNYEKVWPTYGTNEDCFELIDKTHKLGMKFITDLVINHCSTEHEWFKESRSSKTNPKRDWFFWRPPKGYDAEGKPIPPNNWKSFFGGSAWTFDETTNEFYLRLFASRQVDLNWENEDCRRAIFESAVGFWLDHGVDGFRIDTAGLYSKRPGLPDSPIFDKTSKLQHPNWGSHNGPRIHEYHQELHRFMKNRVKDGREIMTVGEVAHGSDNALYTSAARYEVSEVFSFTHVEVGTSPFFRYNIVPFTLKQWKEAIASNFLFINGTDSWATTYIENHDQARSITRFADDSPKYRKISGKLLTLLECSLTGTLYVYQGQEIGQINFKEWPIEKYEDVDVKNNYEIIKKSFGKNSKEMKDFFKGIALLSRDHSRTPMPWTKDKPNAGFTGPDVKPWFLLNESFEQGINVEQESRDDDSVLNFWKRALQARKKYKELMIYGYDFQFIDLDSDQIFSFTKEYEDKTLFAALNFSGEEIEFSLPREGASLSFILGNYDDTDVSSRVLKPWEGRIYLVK

Row | SMILES | type of inhibition of PON1 [1] | IC50 (human sPLA2 hG-IIA) [nM] | IC50 sPLA2(IIA) (human sPLA2 hG-IIA) | IC50 (α-glucosidase) [nM]
1 | CC(C)NCC(O)COc1cccc2[nH]ccc12 (stereo not shown) [pindolol] | non-competitive inhibition | – | – | –
2 | O=S(=O)(NNc1nc2ccccc2nc1NNS(=O)(=O)c1ccc(Br)cc1)c1ccc(Br)cc1 [Compound 6d, N’,N’’’-(quinoxaline-2,3-diyl)bis(4-bromobenzenesulfonohydrazide)] | – | 4930 ± 241 | high micromolar | 8290 ± 367
3 | CC(C)NCC(O)COc1ccc(CC(N)=O)cc1 (stereo not shown) [atenolol] | non-competitive inhibition | – | – | –
4 | O=S(=O)(NNc1nc2ccccc2nc1NNS(=O)(=O)c1ccccc1)c1ccccc1 [Compound 6a, N’,N’’’-(quinoxaline-2,3-diyl)dibenzenesulfonohydrazide] | – | 47.5 ± 0.8 | – | 3150 ± 32
5 | O=S(=O)(NNc1nc2ccccc2nc1NNS(=O)(=O)c1ccc(C(F)(F)F)cc1)c1ccc(C(F)(F)F)cc1 [Compound 6c, N’,N’’’-(quinoxaline-2,3-diyl)bis(4-trifluoromethylbenzenesulfonohydrazide)] | – | 2240 ± 1050 | – | 95.3 ± 5.4
6 | O=S(=O)(NNc1nc2ccccc2nc1Cl)c1ccc(C(F)(F)F)cc1 [Compound 5c, N’-(3-chloroquinoxalin-2-yl)-4-(trifluoromethyl) benzenesulfonohydrazide] | – | 2590 ± 292 | – | 29400 ± 532
7 | CC(C)(C)NCC(O)COc1cccc2c1CC(O)C(O)C2 (stereo not shown) [nadolol] | competitive inhibition | – | – | –
8 | O=S(=O)(NNc1nc2ccccc2nc1Cl)c1ccc(Br)cc1 [Compound 5d, 4-Bromo-N’-(3-chloroquinoxalin-2-yl)benzenesulfonohydrazide] | – | 2120 ± 132 | – | 13300 ± 263
9 | Cc1ccc(S(=O)(=O)NNc2nc3ccccc3nc2Cl)cc1 [Compound 5b, N’-(3-chloroquinoxalin-2-yl)-4-methylbenzenesulfonohydrazide] | – | 1520 ± 212 | – | 2790 ± 500
10 | Cc1ccc(S(=O)(=O)NNc2nc3ccccc3nc2NNS(=O)(=O)c2ccc(C)cc2)cc1 [Compound 6b, N’,N’’’-(quinoxaline-2,3-diyl)bis(4-methylbenzenesulfonohydrazide)] | – | 76.5 ± 1.7 | – | 960 ± 112
11 | COc1ccc(OC)c(C(O)CNC(=O)CN)c1 (stereo not shown) [Midodrine] | competitive inhibition | – | – | –
